Experimental data: the CheMixHub ionic liquid set

Assay: xn = mol fraction of the nth substance listed

CCC(=O)[O-].CC[NH+]1CCNCC1 + CCCCO
Conditions	viscosity [mPa·s]
313.15 K, 101 kPa, x2 = 0.6004	14.05

CC[S+](CC)CCOCCOCC[S+](CC)CC.O=S(=O)([N-]S(=O)(=O)C(F)(F)F)C(F)(F)F.O=S(=O)([N-]S(=O)(=O)C(F)(F)F)C(F)(F)F + CC[n+]1ccn(C)c1.N#C[N-]C#N + O=S(=O)([N-]S(=O)(=O)C(F)(F)F)C(F)(F)F.[Li+]
100 kPa, x1 = 0.1539, x2 = 0.744
Conditions	electrical conductivity [S/m]
298 K	0.615
303 K	0.691
313 K	0.953
323 K	1.22
333 K	1.57
343 K	1.93

CCCCCCCCCCCCCC[P+](CCCC)(CCCC)CCCC.CCCCCCCCCCCCc1ccccc1S(=O)(=O)[O-] + CCCCCCCCCCCC
101 kPa
Conditions	viscosity [mPa·s]
298.15 K, x1 = 0.4402	456
303.15 K, x1 = 0.4402	325
308.15 K, x1 = 0.4844	319
313.15 K, x1 = 0.354	127
313.15 K, x1 = 0.4402	180
313.15 K, x1 = 0.4844	236
318.15 K, x1 = 0.6789	596
328.15 K, x1 = 0.354	59.1
328.15 K, x1 = 0.6789	316
338.15 K, x1 = 0.354	39.1
338.15 K, x1 = 0.4844	65.1
343.15 K, x1 = 0.6789	133
353.15 K, x1 = 0.6789	86.1

CC(=O)[O-].[Na+] + O + CCCC[n+]1ccn(C)c1.N#C[S-]
Conditions	viscosity [mPa·s]
323.15 K, 101 kPa, x1 = 0.08925, x2 = 0.9088	2.515

CC[n+]1ccn(C)c1.N#C[S-] + CS(C)=O
101 kPa, x1 = 0.3333
Conditions	viscosity [mPa·s]
293.15 K	3.24
308.15 K	2.36
328.15 K	1.57

CCCCCCCCCCCCCCCC[n+]1ccccc1.[Cl-] + NCC(=O)O + O
308.15 K, 101 kPa
Conditions	electrical conductivity [S/m]
x2 = 0, x1 = 5.4e-07	0.000222
x2 = 0, x1 = 9e-07	0.00029
x2 = 0, x1 = 1.62e-06	0.0004
x2 = 0, x1 = 2.34e-06	0.000465
x2 = 0, x1 = 2.88e-06	0.000581
x2 = 0, x1 = 3.78e-06	0.000705
x2 = 0, x1 = 4.5e-06	0.000794
x2 = 0, x1 = 5.59e-06	0.000937
x2 = 0, x1 = 6.85e-06	0.00106
x2 = 0, x1 = 7.93e-06	0.001222
x2 = 0, x1 = 9.01e-06	0.001438
x2 = 0, x1 = 1.009e-05	0.00159
x2 = 0, x1 = 1.117e-05	0.001701
x2 = 0, x1 = 1.442e-05	0.00209
x2 = 0, x1 = 1.55e-05	0.00219
x2 = 0, x1 = 1.766e-05	0.00237
x2 = 0, x1 = 1.982e-05	0.00248
x2 = 0, x1 = 2.18e-05	0.00259
x2 = 0, x1 = 2.397e-05	0.00264
x2 = 0, x1 = 2.595e-05	0.00278
x2 = 0, x1 = 2.991e-05	0.00297
x2 = 0, x1 = 3.406e-05	0.00314
x2 = 0, x1 = 3.784e-05	0.00328
x2 = 0, x1 = 4.162e-05	0.00342
x2 = 0, x1 = 4.541e-05	0.00356
x2 = 0, x1 = 4.919e-05	0.00369
x2 = 0, x1 = 5.099e-05	0.00375
x2 = 0, x1 = 5.982e-05	0.00403
x2 = 0, x1 = 6.829e-05	0.00432
x2 = 0, x1 = 7.64e-05	0.00454
x2 = 0, x1 = 8.415e-05	0.00477
x2 = 0, x1 = 9.171e-05	0.00497
x2 = 0, x1 = 9.892e-05	0.00516
x2 = 0, x1 = 0.0001058	0.00533
x2 = 0, x1 = 0.0001124	0.0055
x2 = 0, x1 = 0.0001189	0.00565
x2 = 2.018e-05, x1 = 5.4e-07	0.0001
x2 = 2.018e-05, x1 = 9e-07	0.000245
x2 = 2.018e-05, x1 = 1.62e-06	0.000348
x2 = 2.018e-05, x1 = 2.34e-06	0.000456
x2 = 2.018e-05, x1 = 2.88e-06	0.000621
x2 = 2.018e-05, x1 = 3.78e-06	0.000716
x2 = 2.018e-05, x1 = 4.51e-06	0.000822
x2 = 2.018e-05, x1 = 5.59e-06	0.000964
x2 = 2.018e-05, x1 = 6.85e-06	0.00108
x2 = 2.018e-05, x1 = 7.93e-06	0.001203
x2 = 2.018e-05, x1 = 9.01e-06	0.001314
x2 = 2.018e-05, x1 = 1.009e-05	0.001427
x2 = 2.018e-05, x1 = 1.117e-05	0.001546
x2 = 2.018e-05, x1 = 1.334e-05	0.001813
x2 = 2.018e-05, x1 = 1.55e-05	0.00205
x2 = 2.018e-05, x1 = 1.766e-05	0.00226
x2 = 2.018e-05, x1 = 1.982e-05	0.0024
x2 = 2.018e-05, x1 = 2.181e-05	0.00252
x2 = 2.018e-05, x1 = 2.397e-05	0.00262
x2 = 2.018e-05, x1 = 2.595e-05	0.0027
x2 = 2.018e-05, x1 = 3.009e-05	0.00285
x2 = 2.018e-05, x1 = 3.406e-05	0.00306
x2 = 2.018e-05, x1 = 3.802e-05	0.00323
x2 = 2.018e-05, x1 = 4.181e-05	0.00336
x2 = 2.018e-05, x1 = 4.559e-05	0.0035
x2 = 2.018e-05, x1 = 4.92e-05	0.00362
x2 = 2.018e-05, x1 = 5.1e-05	0.00368
x2 = 2.018e-05, x1 = 6.001e-05	0.00392
x2 = 2.018e-05, x1 = 6.848e-05	0.00422
x2 = 2.018e-05, x1 = 7.658e-05	0.00445
x2 = 2.018e-05, x1 = 8.433e-05	0.00467
x2 = 2.018e-05, x1 = 9.19e-05	0.00486
x2 = 2.018e-05, x1 = 9.911e-05	0.00506
x2 = 2.018e-05, x1 = 0.000106	0.00523
x2 = 2.018e-05, x1 = 0.0001126	0.00538
x2 = 2.018e-05, x1 = 0.0001191	0.00553
x2 = 0.0002, x1 = 5.4e-07	0.000232
x2 = 0.0002, x1 = 9e-07	0.000298
x2 = 0.0002, x1 = 1.62e-06	0.00042
x2 = 0.0002, x1 = 2.16e-06	0.000524
x2 = 0.0002, x1 = 2.89e-06	0.000628
x2 = 0.0002, x1 = 3.79e-06	0.000685
x2 = 0.0002, x1 = 4.51e-06	0.000861
x2 = 0.0002, x1 = 5.59e-06	0.001036
x2 = 0.0002, x1 = 6.67e-06	0.00115
x2 = 0.0002, x1 = 7.75e-06	0.00127
x2 = 0.0002, x1 = 8.84e-06	0.001426
x2 = 0.0002, x1 = 9.92e-06	0.00157
x2 = 0.0002, x1 = 1.1e-05	0.00168
x2 = 0.0002, x1 = 1.316e-05	0.001913
x2 = 0.0002, x1 = 1.533e-05	0.00214
x2 = 0.0002, x1 = 1.731e-05	0.00228
x2 = 0.0002, x1 = 1.947e-05	0.00243
x2 = 0.0002, x1 = 2.146e-05	0.00253
x2 = 0.0002, x1 = 2.344e-05	0.00262
x2 = 0.0002, x1 = 2.56e-05	0.00272
x2 = 0.0002, x1 = 2.957e-05	0.00291
x2 = 0.0002, x1 = 3.336e-05	0.00307
x2 = 0.0002, x1 = 3.732e-05	0.00323
x2 = 0.0002, x1 = 4.111e-05	0.00337
x2 = 0.0002, x1 = 4.472e-05	0.0035
x2 = 0.0002, x1 = 4.832e-05	0.00363
x2 = 0.0002, x1 = 5.012e-05	0.0037
x2 = 0.0002, x1 = 5.878e-05	0.00399
